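48-hour exposure; five concentrations; linearly interpolated endpoints. GI50 = concentration required for 50% inhibition of growth.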 The source made the active and inactive calls. No stated cut-off is given here; in the data, active = GI50 up to about 1.1 µM and inactive = higher.
What was measured:
Assay in all cases: growth of human tumour cells (NCI), 48 h
DMS-114 = system: DMS-114
BT-549 = system: BT-549
HOP-18 = system: HOP-18
CAKI-1 = system: CAKI-1
MDA-MB-231 = system: MDA-MB-231
PC-3 = system: PC-3
SK-MEL-5 = system: SK-MEL-5
MDA-MB-435 = system: MDA-MB-435
T47D = system: T47D
A498 = system: A498
XF498 = system: XF498
HOP-92 = system: HOP-92
DU-145 = system: DU-145
OVCAR-5 = system: OVCAR-5
HCC 2998 = system: HCC 2998
OVCAR-4 = system: OVCAR-4
SNB-75 = system: SNB-75
NCI-H226 = system: NCI-H226
Hs-578T = system: Hs-578T
RXF 631 = system: RXF 631
SNB-78 = system: SNB-78
SK-MEL-2 = system: SK-MEL-2
MCF7 = system: MCF7
NCI/ADR-RES = system: NCI/ADR-RES
MDA-N = system: MDA-N
EKVX = system: EKVX
SN12C = system: SN12C
COLO 205 = system: COLO 205
NCI-H460 = system: NCI-H460
A549 = system: A549
SW-620 = system: SW-620
LOX IMVI = system: LOX IMVI
786-0 = system: 786-0
ACHN = system: ACHN
SK-OV-3 = system: SK-OV-3
TK-10 = system: TK-10
OVCAR-3 = system: OVCAR-3
UO-31 = system: UO-31
UACC-257 = system: UACC-257
NCI-H23 = system: NCI-H23
HT-29 = system: HT-29
SK-MEL-28 = system: SK-MEL-28
HOP-62 = system: HOP-62
IGROV-1 = system: IGROV-1
LXFL 529 = system: LXFL 529
SF-295 = system: SF-295
OVCAR-8 = system: OVCAR-8
Malme-3M = system: Malme-3M
SF-268 = system: SF-268
KM-20L2 = system: KM-20L2
RXF 393 = system: RXF 393
MOLT-4 = system: MOLT-4
NCI-H522 = system: NCI-H522
SNB-19 = system: SNB-19
RPMI-8226 = system: RPMI-8226
CCRF-CEM = system: CCRF-CEM
UACC-62 = system: UACC-62
DLD-1 = system: DLD-1
M19-MEL = system: M19-MEL
HL-60 = system: HL-60
HCT-15 = system: HCT-15
K562 = system: K562
KM12 = system: KM12
SF-539 = system: SF-539
M14 = system: M14

With CC(C)=CCC1=C(O)C(=O)c2ccccc2C1=O [LAPACHOL] the GI50 (DMS-114) was 60.3 µM (inactive), the GI50 (BT-549) was 51.8 µM (inactive) and the GI50 (HOP-18) was 15.2 µM (inactive). The GI50 (CAKI-1) was 55 µM (inactive), the GI50 (MDA-MB-231) was 8.53 µM (inactive) and the GI50 (PC-3) was 2.92 µM (inactive). The GI50 (SK-MEL-5) was 11.7 µM (inactive), the GI50 (MDA-MB-435) was 18.5 µM (inactive) and the GI50 (T47D) was 61.4 µM (inactive). The GI50 (A498) was 60.4 µM (inactive), the GI50 (XF498) was 42.4 µM (inactive) and the GI50 (HOP-92) was 79.6 µM (inactive). For the same compound, the GI50 (DU-145) was 36.9 µM (inactive), the GI50 (OVCAR-5) was > 100 µM (inactive) and the GI50 (HCC 2998) was 86.3 µM (inactive). The GI50 (OVCAR-4) was 33.7 µM (inactive), the GI50 (SNB-75) was 57.1 µM (inactive) and the GI50 (NCI-H226) was 53.8 µM (inactive). For the same compound, the GI50 (Hs-578T) was 34.8 µM (inactive), the GI50 (RXF 631) was 22.2 µM (inactive) and the GI50 (SNB-78) was > 100 µM (inactive). For the same compound, the GI50 (SK-MEL-2) was 35.5 µM (inactive), the GI50 (MCF7) was 24.4 µM (inactive) and the GI50 (NCI/ADR-RES) was 32.3 µM (inactive). The GI50 (MDA-N) was 17.4 µM (inactive) and the GI50 (EKVX) was 78.7 µM (inactive).

Cc1ccc(C2CC(c3ccc([N+](=O)[O-])cc3)=Nc3ccccc3S2)cc1 (centres undefined) was tested, and the GI50 (SN12C) was 25.5 µM (inactive), the GI50 (COLO 205) was 41.8 µM (inactive) and the GI50 (DMS-114) was 16.5 µM (inactive). For the same compound, the GI50 (NCI-H460) was 36.9 µM (inactive), the GI50 (A549) was 22.3 µM (inactive) and the GI50 (SW-620) was 20 µM (inactive). The GI50 (LOX IMVI) was 15.3 µM (inactive), the GI50 (HOP-18) was 48.4 µM (inactive) and the GI50 (CAKI-1) was 31 µM (inactive). The GI50 (SK-MEL-5) was 17.1 µM (inactive), the GI50 (A498) was 16.3 µM (inactive) and the GI50 (786-0) was 14.6 µM (inactive). The GI50 (ACHN) was 27.6 µM (inactive), the GI50 (XF498) was 19 µM (inactive) and the GI50 (SK-OV-3) was 89.9 µM (inactive). The GI50 (OVCAR-5) was 44.5 µM (inactive), the GI50 (TK-10) was 34.8 µM (inactive) and the GI50 (OVCAR-3) was 24.7 µM (inactive). The GI50 (HCC 2998) was 20.3 µM (inactive), the GI50 (UO-31) was 18.9 µM (inactive) and the GI50 (UACC-257) was 28.6 µM (inactive). For the same compound, the GI50 (NCI-H23) was 19.5 µM (inactive), the GI50 (HT-29) was 26.6 µM (inactive) and the GI50 (SK-MEL-28) was 29 µM (inactive). The GI50 (HOP-62) was 61.5 µM (inactive), the GI50 (IGROV-1) was 23.4 µM (inactive) and the GI50 (LXFL 529) was 12.1 µM (inactive). For the same compound, the GI50 (SF-295) was 27.4 µM (inactive), the GI50 (OVCAR-8) was 22.5 µM (inactive) and the GI50 (Malme-3M) was 50.8 µM (inactive). For the same compound, the GI50 (OVCAR-4) was 23.7 µM (inactive), the GI50 (SF-268) was 24.4 µM (inactive) and the GI50 (SNB-75) was 21.4 µM (inactive). For the same compound, the GI50 (KM-20L2) was 34.3 µM (inactive), the GI50 (RXF 393) was 12.1 µM (inactive) and the GI50 (NCI-H226) was 44.6 µM (inactive). For the same compound, the GI50 (MOLT-4) was 15.1 µM (inactive), the GI50 (NCI-H522) was 20.1 µM (inactive) and the GI50 (SNB-19) was 23 µM (inactive). For the same compound, the GI50 (RPMI-8226) was 15.6 µM (inactive), the GI50 (RXF 631) was 24.5 µM (inactive) and the GI50 (CCRF-CEM) was 12.9 µM (inactive). The GI50 (UACC-62) was 32.8 µM (inactive), the GI50 (DLD-1) was 25.5 µM (inactive) and the GI50 (M19-MEL) was 18.6 µM (inactive). For the same compound, the GI50 (SK-MEL-2) was 30.3 µM (inactive), the GI50 (HL-60) was 19.8 µM (inactive) and the GI50 (HCT-15) was 18 µM. The GI50 (K562) was 13.4 µM (inactive), the GI50 (KM12) was 18.4 µM (inactive) and the GI50 (SF-539) was 26.2 µM (inactive). For the same compound, the GI50 (EKVX) was 42.6 µM (inactive) and the GI50 (M14) was 28.3 µM (inactive).

From ChEMBL document CHEMBL1201862, “PubChem BioAssay data set” (2004)
